Test results from US20060105393A1, “Ligand-receptor tracking assays” (priority 2004, published 2006).

Legend:
[1] = molecular target: recombinant human Somatostatin receptor 5 (Homo sapiens, UniProt P35346); conditions: 1 μM competitor, 100 nM Atto590-SST14, 30 minutes at 37° C. (FIG. 1)
NK3R [2] = molecular target: T1, NK3R (Homo sapiens, UniProt P29371); conditions: mixed cells
T1 sequence (P29371 1-465): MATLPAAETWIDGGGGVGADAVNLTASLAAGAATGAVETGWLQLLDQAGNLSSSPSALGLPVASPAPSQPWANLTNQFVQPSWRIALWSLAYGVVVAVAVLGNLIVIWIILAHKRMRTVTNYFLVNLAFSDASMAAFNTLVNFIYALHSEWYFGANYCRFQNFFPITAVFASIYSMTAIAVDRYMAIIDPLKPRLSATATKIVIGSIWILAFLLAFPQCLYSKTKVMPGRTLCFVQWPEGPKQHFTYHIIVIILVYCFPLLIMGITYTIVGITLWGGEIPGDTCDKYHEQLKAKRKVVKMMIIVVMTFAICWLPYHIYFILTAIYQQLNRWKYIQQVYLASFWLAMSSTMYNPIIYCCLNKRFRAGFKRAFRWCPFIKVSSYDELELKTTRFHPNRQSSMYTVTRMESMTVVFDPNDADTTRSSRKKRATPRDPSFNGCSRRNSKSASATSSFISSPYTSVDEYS

SSTR-5 = molecular target: T2, SSTR-5 (Homo sapiens, UniProt P35346); assay: Multiplexed internalization assay, SSTR-5 readout (Atto590-SST14) in mixed NK3R and SSTR5 cells; type: cell-based; conditions: for SSTR-5 internalization with excess competitor: 1 μM competitor (FIG. 5)
T2 construct: expressed in transfected cells

NK3R [3] = molecular target: T1, NK3R; conditions: 1 μM competitor, 1 nM Atto655-NKB, 30 minutes at 37° C. (FIG. 3)
GHSR-1a receptor = molecular target: T3, GHSR-1a receptor (Homo sapiens, UniProt Q92847); assay: Internalization of GHSR-1a with Ghrelin(1-19)-Texas Red (high content ligand tracking); type: cell-based; conditions: 1 μM competitor, 10 nM Ghrelin(1-19)-Texas Red, 30 minutes at 37° C. (FIG. 7)
T3 construct: expressed in transfected cells

hV1bR = hV1bR (Homo sapiens, UniProt P47901); conditions: 100 nM competitor, 5 nM BO-TMR-vasopressin, 30 minutes at 37° C. (FIG. 9)
Chain of hV1bR (P47901 whole entry): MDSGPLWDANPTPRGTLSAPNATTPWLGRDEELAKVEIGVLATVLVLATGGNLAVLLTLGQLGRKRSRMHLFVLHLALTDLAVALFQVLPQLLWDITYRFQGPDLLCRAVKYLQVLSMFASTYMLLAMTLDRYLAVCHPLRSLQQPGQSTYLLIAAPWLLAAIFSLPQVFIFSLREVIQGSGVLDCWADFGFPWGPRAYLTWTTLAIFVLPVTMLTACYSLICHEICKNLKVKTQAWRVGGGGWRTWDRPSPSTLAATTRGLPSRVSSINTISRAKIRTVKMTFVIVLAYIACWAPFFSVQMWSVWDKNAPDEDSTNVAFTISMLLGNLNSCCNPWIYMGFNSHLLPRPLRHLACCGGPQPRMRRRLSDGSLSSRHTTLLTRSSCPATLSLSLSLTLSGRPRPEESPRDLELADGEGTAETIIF

T2 sequence (P35346 whole entry): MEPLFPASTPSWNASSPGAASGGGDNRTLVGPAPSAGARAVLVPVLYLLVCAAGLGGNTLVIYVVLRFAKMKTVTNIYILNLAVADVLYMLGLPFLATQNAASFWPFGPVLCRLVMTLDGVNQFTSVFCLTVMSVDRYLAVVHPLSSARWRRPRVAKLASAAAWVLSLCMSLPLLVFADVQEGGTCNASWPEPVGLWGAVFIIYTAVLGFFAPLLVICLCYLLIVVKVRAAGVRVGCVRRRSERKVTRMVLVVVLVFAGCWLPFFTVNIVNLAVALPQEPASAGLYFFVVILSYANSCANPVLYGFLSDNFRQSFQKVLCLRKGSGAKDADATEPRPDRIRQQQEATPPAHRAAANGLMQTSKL
Chain of recombinant human Somatostatin receptor 5 (P35346 whole entry): as above
T3 sequence (Q92847 whole entry): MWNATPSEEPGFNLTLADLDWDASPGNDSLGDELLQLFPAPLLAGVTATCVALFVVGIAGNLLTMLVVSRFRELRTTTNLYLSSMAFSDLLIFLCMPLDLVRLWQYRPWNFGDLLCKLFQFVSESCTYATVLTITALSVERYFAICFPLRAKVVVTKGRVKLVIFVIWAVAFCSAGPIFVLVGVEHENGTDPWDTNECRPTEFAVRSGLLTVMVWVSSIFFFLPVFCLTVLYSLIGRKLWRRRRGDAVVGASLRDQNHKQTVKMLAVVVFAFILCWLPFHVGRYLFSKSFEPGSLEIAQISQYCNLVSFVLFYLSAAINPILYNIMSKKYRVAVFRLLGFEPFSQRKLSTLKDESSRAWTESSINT

**Q.** With Somatostatin-14 [SST14] as the molecule, how does the “formation of fluorescent ERCs on co-incubation with excess competitor” value (shortened to “formation of fluorescent ERCs”) [1] read?
**A.** The value was “block the formation of fluorescent ERCs”.

**Q.** What about the “intensity of Atto655-NKB in ERCs with increasing amount of competitor” value (NK3R [2]; dose response (FIG. 6)) of the same molecule?
**A.** The value was “unchanged”.

**Q.** What about the “SSTR-5 internalization with excess competitor” value (SSTR-5) of the same molecule?
**A.** The value was “inhibited in a selective manner”.

**Q.** What does the source list for `CC[C@H](NC(=O)c1c(C)c(-c2ccccc2)nc2ccccc12)c1ccccc1` [SB222200]?
**A.** formation of fluorescent ERCs on co-incubation with excess competitor (NK3R [3]): blocked the formation of fluorescent ERCs; NK3R mediated internalization of fluorescent ligand with excess competitor (NK3R [2]; 1 μM competitor (FIG. 5)): blocked; SSTR-5 internalization with excess competitor (SSTR-5): no effect; amount of internalized Atto590-SST14 with increasing amount of competitor (SSTR-5; dose response (FIG. 6)): unaffected

**Q.** Which “formation of fluorescent ERCs” value (GHSR-1a receptor) does the source give for `CC(C)(N)C(=O)N[C@H](COCc1ccccc1)C(=O)N1CCC2(CC1)CN(S(C)(=O)=O)c1ccccc12` [MK0677] here?
**A.** The value was “blocked the formation of fluorescent ERCs”.

**Q.** For Arg-8-Vasopressin, which “formation of fluorescent ERCs” value (hV1bR) is on record?
**A.** Its value is “blocked the formation of fluorescent ERCs in most cells”.
